pIC50, pKd: −log10 of the molar value. Read-outs that look alike come from different tables or passages of the source.
Key:
[1] = system: eyes of albino New Zealand White rabbits
[2] = Stability of pharmaceutical formulations (1 mg/mL solutions); type: physicochemical; conditions: 5° C.
Protocol: The samples were sonicated to achieve clear solutions having the following properties: Osmolality (mOsm/kg): 310 (Na), 314 (HCl); pH: 7.00 (Na), 7.05 (HCl). 0.5 mL of the stock solutions were diluted to 1 mL with 20% DMSO in water & injected for purity analysis by HPLC. The remaining stock solutions were then split into aliquots of 0.5 mL in HPLC vials, and stored at various conditions in duplicate. Samples were stored at 5 and 25° C., before being analysed by HPLC at 1, 2 and 4 weeks. Separate samples were stored at 40° C. and analysed at 4 weeks.

[3] = system: Salmonella typhimurium, strains TA1535, TA1537, TA98 and TA100 and Escherichia coli, WP2 uvrA; experiment: Bacterial reverse mutation screen (plate incorporation)
LPS-stimulated rats = experiment: Endotoxin-induced uveitis in rats; type: in vivo, rat; conditions: mean ± SEM; for IL-1β Anterior tissue / IL-1β Posterior tissue: LPS-stimulated rats; for Cell counts: aqueous humor
Protocol: Male, Lewis rats (6-8 weeks old, Charles River UK Limited) are housed in cages of 3 at 19-21° C. with a 12 h light/dark cycle (07:00/19:00) and fed a standard diet of rodent chow and water ad libitum. Non-fasted rats are weighed, individually identified on the tail with a permanent marker, and receive a single intravitreal administration into the right vitreous humor (5 μL dose volume) of 100 ng/animal of LPS (Escherichia coli 0111:B4 prepared in PBS, Sigma Aldrich, UK) using a 32-gauge needle. Untreated rats are injected with PBS. Test compound or vehicle (4% polyoxyl 40 stearate, 4% mannitol in PBS (pH 7.4)) are administered by the topical route onto the right eye (10 μL) of animals 1 hour prior to LPS, at the time of LPS administration, and 1, 2 and 4 hours post LPS administration. Before administration, the solution to be administered is sonicated to ensure a clear solution. 6 hours after LPS dosing, animals are euthanized by overdose with pentobarbitone (via cardiac puncture). Immediately after euthanasia, 10 μL of aqueous humor is collected from the right eye of the rats by puncture of the anterior chamber using a 32 gauge needle under a surgical microscope. The aqueous humor is diluted in 20 μL of PBS and total cell counts are measured immediately using a Countess automated cell counter (Invitrogen). Following collection of the aqueous humour, the right eye of each animal is enucleated and dissected into front (anterior) and back (posterior) sections around the lens. Each section is weighed and homogenised in 500 μL of sterile phosphate buffered saline followed by 20 minutes centrifugation at 12000 rpm at 4° C. The resulting supernatant is divided into 3 aliquots and stored at −80° C. until subsequent cytokine analysis by R&D DuoSet ELISA.

Syk = Syk (Homo sapiens (Human), UniProt P43405); experiment: KINOMEscan dissociation constant, Syk; type: binding
Description: These assays may be conducted by DiscoverX (formerly Ambit; San Diego, Calif.).

PBMCs = experiment: Cell mitosis assay (assay g); type: cell-based, human
Protocol: Peripheral blood mononucleocytes (PBMCs) from healthy subjects are separated from whole blood (Quintiles, London, UK) using a density gradient (Histopaque-1077, Sigma-Aldrich, Poole, UK). The PBMCs (3 million cells per sample) are subsequently treated with 2% PHA (phytohaemagglutinin, Sigma-Aldrich, Poole, UK) for 48 hr, followed by a 20 hr exposure to varying concentrations of test compounds. At 2 hr before collection, PBMCs are treated with demecolcine (0.1 μg/mL; Invitrogen, Paisley, UK) to arrest cells in metaphase. To observe mitotic cells, PBMCs are permeabilised and fixed by adding Intraprep (50 μL; Beckman Coulter, France), and stained with anti-phospho-histone 3 (0.26 ng/L; #9701; Cell Signalling, Danvers, Mass.) and propidium iodide (1 mg/mL; Sigma-Aldrich, Poole, UK) as previously described (Muehlbauer P. A. and Schuler M. J., Mutation Research, 2003, 537:117-130). Fluorescence is observed using an ATTUNE flow cytometer (Invitrogen, Paisley, UK), gating for lymphocytes.

p38 MAPKα = p38 MAPKα (Homo sapiens (Human), UniProt Q16539); experiment: p38 MAPKα enzyme inhibition (Method 2), Z-LYTE FRET; type: biochemical
p38 MAPKα, sequence (Q16539 whole entry, looked up): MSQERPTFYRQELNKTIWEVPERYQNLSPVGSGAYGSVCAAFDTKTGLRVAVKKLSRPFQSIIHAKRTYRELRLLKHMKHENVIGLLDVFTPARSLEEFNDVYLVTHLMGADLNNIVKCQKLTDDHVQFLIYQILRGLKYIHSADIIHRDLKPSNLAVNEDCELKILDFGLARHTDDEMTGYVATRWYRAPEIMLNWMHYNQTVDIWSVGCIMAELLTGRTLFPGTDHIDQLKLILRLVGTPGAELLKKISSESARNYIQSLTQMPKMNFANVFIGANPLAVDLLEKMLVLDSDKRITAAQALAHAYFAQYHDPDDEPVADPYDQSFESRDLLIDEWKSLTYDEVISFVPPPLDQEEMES
Protocol: The enzyme inhibitory activities of the compound disclosed herein are determined by FRET using synthetic peptides labelled with both donor and acceptor fluorophores (Z-LYTE, Invitrogen Ltd., Paisley, UK).
The inhibitory activities of test compounds against the p38 MAPKα isoform (MAPK14: Invitrogen) are evaluated indirectly by determining the level of activation/phosphorylation of the down-stream molecule, MAPKAP-K2. The p38 MAPKα protein (80 ng/mL, 2.5 μL) is mixed with the test compound (2.5 μL of either 4 μg/mL, 0.4 μg/mL, 0.04 μg/mL or 0.004 μg/mL) for 2 hr at RT. […] The mixture is incubated for 1 hr at RT. Development reagent (protease, 5 μL) is added for 1 hr prior to detection in a fluorescence microplate reader (Varioskan® Flash, ThermoFisher Scientific). […]
In all cases, the site-specific protease cleaves non-phosphorylated peptide only and eliminates the FRET signal. Phosphorylation levels of each reaction are calculated using the ratio of coumarin emission (donor) over fluorescein emission (acceptor), for which high ratios indicate high phosphorylation and low ratios indicate low phosphorylation levels.

In the case of COc1cc(Nc2cc(Oc3ccc(NC(=O)Nc4cc(C(C)(C)C)cc(NS(C)(=O)=O)c4OC)c4ccccc34)ccn2)ccc1C(=O)O [Example 1, 4-((4-((4-(3-(5-(tert-Butyl)-2-methoxy-3-(methylsulfonamido)phenyl)ureido)naphthalen-1-yl)oxy)pyridin-2-yl)amino)-2-methoxybenzoic acid], the “ocular reactions compared with vehicle controls” value ([1]; Phase 1, one treatment day, 0.1 and 1.0 mg/mL) was “no differences in the frequency, severity and incidence”, the “local tolerability of the formulations” value ([1]; Phase 1, single dosing day, 0.1 and 1.0 mg/mL) was “acceptable” and the “local tolerability of the formulations” value ([1]; Phase 2, three consecutive treatment days, 0.1 and 1.0 mg/mL) was “acceptable without any aggravation”. The “effects on body weight and food consumption” value ([1]; rabbits, ocular 0.1 and 1.0 mg/mL, four daily instillations) was “no effects on body weight, nor on food consumption”, the stability in solution [2] was “stable” and the mutagenic effects ([3]; 15-1500 μg/plate, all strains, presence and absence of S-9 mix) was “absence of any mutagenic effects”. The “toxicity of the test item to the bacteria” value ([3]; 500 and 1500 μg/plate in TA98, 1500 μg/plate in TA1535, presence of S-9 mix) was “reduction in the mean colony count”, the “limit of solubility in mutation test” value ([3]; all strains, presence and absence of S-9 mix, plate incorporation) was 1500 μg/plate and the “increases in revertant numbers” value ([3]; any strain, any dose level, presence or absence of S-9 mix) was “no dose-related or statistically significant increases”. The “IL-1β Anterior tissue” value (LPS-stimulated rats; 0.001 mg/mL topical) was 1558.1 ± 145.7 pg/mL, the “IL-1β Posterior tissue” value (LPS-stimulated rats; 0.001 mg/mL topical) was 867.9 ± 120.8 pg/mL and the Cell counts (LPS-stimulated rats; 0.001 mg/mL topical) was 63.6 ± 7.0 ×10^5/mL. For the same compound, the “IL-1β Anterior tissue” value (LPS-stimulated rats; 0.01 mg/mL topical) was 980.0 ± 110.8 pg/mL, the “IL-1β Posterior tissue” value (LPS-stimulated rats; 0.01 mg/mL topical) was 740.5 ± 56.2 pg/mL and the Cell counts (LPS-stimulated rats; 0.01 mg/mL topical) was 43.5 ± 6.3 ×10^5/mL. For the same compound, the “IL-1β Anterior tissue” value (LPS-stimulated rats; 0.1 mg/mL topical) was 791.2 ± 131.9 pg/mL, the “IL-1β Posterior tissue” value (LPS-stimulated rats; 0.1 mg/mL topical) was 327.4 ± 61.4 pg/mL and the Cell counts (LPS-stimulated rats; 0.1 mg/mL topical) was 30.4 ± 6.7 ×10^5/mL. For the same compound, the “IL-1β Anterior tissue” value (LPS-stimulated rats; 1 mg/mL topical) was 367.3 ± 100.4 pg/mL, the “IL-1β Posterior tissue” value (LPS-stimulated rats; 1 mg/mL topical) was 188.1 ± 54.7 pg/mL and the Cell counts (LPS-stimulated rats; 1 mg/mL topical) was 21.9 ± 5.0 ×10^5/mL. The pKd (Syk) was 8.15, the “impact on cell division (mitosis) in PBMCs compared with Reference Compound” value (PBMCs) was “markedly less active than the Reference Compound” and the pIC50 (p38 MAPKα) was 7.96.

— patent publication US9499486B2, “Kinase inhibitor” (RESPIVERT LIMITED, priority 2014, dated 2016)
